Reference: patent US10125126B2, “N-cycloalkyl-N-[(heterocyclylphenyl)methylene]-(thio)carboxamide derivatives” (BAYER CROPSCIENCE AG, priority 2012, dated 2018)

How the values were obtained:
[1] = tested on: Botrytis cinerea; assay: In vivo preventive test on Botrytis cinerea (grey mould); conditions: 500 ppm of active ingredient; gherkin plants; 4 to 5 days after contamination
Outline: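 Gherkin plants at cotyledon stage Z11 were sprayed with compound, then inoculated 24 h later with Botrytis cinerea spores (50 000 spores per mL in nutrient solution). Plants were kept at 17° C and 90% RH, and percent efficacy versus solvent-treated controls was graded 4 to 5 days after contamination.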

[2] = tested on: Sphaerotheca fuliginea; assay: In vivo preventive test on Sphaerotheca fuliginea (powdery mildew on cucurbits); conditions: Podosphaera fuliginea, 288 h, 500 ppm of active ingredient; gherkin plants; 12 days after contamination; read-out: Efficacy
Outline: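 Gherkin plants ("Vert petit de Paris") grown at 24 °C were sprayed at cotyledon stage Z11; controls received acetone/tween/DMSO/water without active. Inoculation 24 h later by spraying cotyledons with 100 000 spores/mL. Efficacy (%) graded 12 days post-contamination versus controls.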

[3] = tested on: Blumeria graminis f.sp. hordei; assay: In vivo preventive test on Blumeria graminis (barley); conditions: 500 ppm of active ingredient, evaluated 7 days after inoculation
Protocol: In Vivo Preventive Test on Blumeria graminis (Barley) [table] To produce a suitable preparation of active compound, 1 part by weight of active compound or active compound combination is mixed with the stated amounts of solvent and emulsifier, and the concentrate is diluted with water to the desired concentration. To test for preventive activity, young plants are sprayed with the preparation of active compound or active compound combination at the stated rate of application. After the spray coating has been dried, the plants are dusted with spores of Blumeria graminis f.sp. hordei.

CC(C)c1ccc(-c2csc3ccccc23)cc1CN(C(=O)c1c(C(F)F)nn(C)c1F)C1CC1 [I.157, N-[5-(1-benzothiophen-3-yl)-2-isopropylbenzyl]-N-cyclopropyl-3-(difluoromethyl)-5-fluoro-1-methyl-1H-pyrazole-4-carboxamide]
100%: Efficacy [1] | pest or weed control at 500 ppm [2] | Efficacy [3]
